What was measured:
[1] = biological target: T1, α4β1 integrin (Jurkat cell adhesion to immobilized CS-1 derived peptide CLHPGEILDVPST) (Homo sapiens, UniProt P05556+P13612); experiment: Jurkat-CS-1 Assay; format: cell-based; settings: Jurkat cells on CS-1 peptide coated plates
T1 construct: 100 μl of Jurkat cells (2.5×10^6 cells/ml) in DMEM plus BSA; endogenous in cells; host or cells: Jurkat T-cell line
Procedure, shortened: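 CS-1 peptide was SPDP-crosslinked onto HSA-coated plates and blocked with BSA. Jurkat cells (2.5×10^6 cells/ml) in DMEM/BSA were mixed with compound, generally at 100, 20, 5 and 1.25 μM, and allowed to adhere for 1 hr at 37° C. Bound cells were fixed, stained with toluidine blue and quantified by OD590.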

[2] = biological target: T2, α4β1 integrin (Jurkat T-cell adhesion to IL-1 stimulated endothelial cell monolayers) (Homo sapiens, UniProt P05556+P13612); experiment: Jurkat-Endothelial Cell Adhesion Assay (Jurkat EC); format: cell-based; settings: Jurkat cells on IL-1 stimulated HUVEC monolayers
T2 construct: a T-cell line, Jurkat, known to express the α4β1 integrin; host or cells: Jurkat T-cell line
T2 sequence (P13612 34-1032): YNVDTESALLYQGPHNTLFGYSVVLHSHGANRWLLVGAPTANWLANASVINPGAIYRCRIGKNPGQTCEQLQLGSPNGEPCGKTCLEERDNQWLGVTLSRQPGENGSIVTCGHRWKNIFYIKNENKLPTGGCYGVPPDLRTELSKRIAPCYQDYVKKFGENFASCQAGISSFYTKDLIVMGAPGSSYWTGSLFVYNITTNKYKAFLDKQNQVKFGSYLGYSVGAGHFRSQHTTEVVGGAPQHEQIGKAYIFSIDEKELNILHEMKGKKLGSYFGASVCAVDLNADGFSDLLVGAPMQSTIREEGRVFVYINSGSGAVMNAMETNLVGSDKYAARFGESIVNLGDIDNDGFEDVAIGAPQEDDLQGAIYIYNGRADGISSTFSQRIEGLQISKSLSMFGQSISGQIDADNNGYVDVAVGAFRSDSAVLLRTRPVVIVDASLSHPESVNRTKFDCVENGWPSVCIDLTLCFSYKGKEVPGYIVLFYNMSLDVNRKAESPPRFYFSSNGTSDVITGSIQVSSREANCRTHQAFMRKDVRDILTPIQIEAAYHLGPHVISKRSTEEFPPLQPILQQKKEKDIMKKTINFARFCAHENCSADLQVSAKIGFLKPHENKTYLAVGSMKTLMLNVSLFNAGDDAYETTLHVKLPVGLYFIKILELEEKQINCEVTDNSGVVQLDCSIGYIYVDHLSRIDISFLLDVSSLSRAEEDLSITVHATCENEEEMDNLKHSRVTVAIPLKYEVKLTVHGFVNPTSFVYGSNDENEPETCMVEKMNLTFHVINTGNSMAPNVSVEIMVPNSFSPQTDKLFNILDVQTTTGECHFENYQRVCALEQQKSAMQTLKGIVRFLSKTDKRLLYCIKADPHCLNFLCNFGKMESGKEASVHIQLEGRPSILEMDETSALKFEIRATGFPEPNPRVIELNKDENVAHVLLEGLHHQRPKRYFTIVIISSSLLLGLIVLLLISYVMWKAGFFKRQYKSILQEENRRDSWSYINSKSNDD
T2 sequence (P05556 21-798): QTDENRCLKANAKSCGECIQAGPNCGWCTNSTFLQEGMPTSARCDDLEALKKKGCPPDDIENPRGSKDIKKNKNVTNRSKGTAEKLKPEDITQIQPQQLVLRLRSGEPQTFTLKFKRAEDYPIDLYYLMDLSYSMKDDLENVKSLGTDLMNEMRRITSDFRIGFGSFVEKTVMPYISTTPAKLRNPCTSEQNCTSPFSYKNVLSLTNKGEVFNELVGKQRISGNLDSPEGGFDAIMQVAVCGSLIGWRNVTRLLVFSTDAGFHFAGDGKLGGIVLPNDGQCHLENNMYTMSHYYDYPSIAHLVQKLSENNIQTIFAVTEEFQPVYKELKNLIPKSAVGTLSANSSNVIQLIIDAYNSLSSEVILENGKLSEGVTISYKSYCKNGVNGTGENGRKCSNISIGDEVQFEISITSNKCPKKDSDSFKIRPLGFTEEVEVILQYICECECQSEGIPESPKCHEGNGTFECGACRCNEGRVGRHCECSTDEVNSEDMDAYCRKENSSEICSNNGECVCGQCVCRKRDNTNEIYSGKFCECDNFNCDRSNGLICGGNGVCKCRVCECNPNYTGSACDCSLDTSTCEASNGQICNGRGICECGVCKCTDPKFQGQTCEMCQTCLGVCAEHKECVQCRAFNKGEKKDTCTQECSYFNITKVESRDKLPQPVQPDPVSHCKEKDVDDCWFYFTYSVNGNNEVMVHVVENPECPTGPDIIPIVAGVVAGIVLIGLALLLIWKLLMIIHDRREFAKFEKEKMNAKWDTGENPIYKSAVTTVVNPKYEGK
Procedure, shortened: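 BCECF-loaded Jurkat cells (5×10^5) mixed with compound (generally 100, 20, 5 and 1.25 μM) and added to HUVEC monolayers prestimulated 4 hr with 0.1 ng/ml IL-1, in DMEM-HSA. After 5 min on ice and 20 min at 37° C, washed; fluorescence gives % adhesion relative to no-compound control set at 100%.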

T1 sequence (P13612 34-1032): as the sequence (P13612 34-1032) above
T1 sequence (P05556 21-798): as the sequence (P05556 21-798) above

Row | Structure (SMILES) | IC50 [1] [µM] | melting point | IC50 [2] [µM]
1 | CC1(C)[C@@H](C(=O)N[C@@H](Cc2ccc(OCC3CCCCC3)cc2)C(=O)O)CC[C@@]1(C)C(=O)O [Example 13] | 0.5 to 1 | 102 to 105 °C | 5 to 10
2 | CCCCC(CC)COc1ccc(CC(NC(=O)C2CCC(C)(C(=O)O)C2(C)C)C(=O)O)cc1 (centres unmarked) [Example 14] |  | 94 to 97 °C | 5 to 10
3 | CC1(C)[C@@H](C(=O)N[C@@H](Cc2cn(Cc3ccccc3)cn2)C(=O)O)CC[C@@]1(C)C(=O)O [Example 29] | 0.5 to 1 | 258 to 259 °C (dec.) | 5 to 10
4 | CC1(C)[C@@H](C(=O)N[C@@H](Cc2cccc(OCc3ccccc3)c2)C(=O)O)CC[C@@]1(C)C(=O)O [Example 46] |  | 88 to 90 °C | 0.8 to 5
5 | CC1(C)[C@@H](C(=O)N[C@@H](Cc2ccc(NC(=O)c3ccccn3)cc2)C(=O)O)CC[C@@]1(C)C(=O)O [Example 77] | 0.08 to 0.5 | 102 to 104 °C | 0.8 to 5
6 | Cc1cccc(C)c1C(=O)Nc1ccc(C[C@H](NC(=O)[C@H]2CC[C@@](C)(C(=O)O)C2(C)C)C(=O)O)cc1 [Example 81] | 0.08 to 0.5 | 195 to 198 °C | ≤ 0.8
7 | CC1(C)[C@@H](C(=O)N[C@@H](Cc2ccc(NC(=O)c3cc(Cl)ccc3Cl)cc2)C(=O)O)CC[C@@]1(C)C(=O)O [Example 87] | ≤ 0.08 | 155 to 158 °C | ≤ 0.8
8 | CC1(C)[C@@H](C(=O)N[C@@H](Cc2ccc(NC(=O)c3cccc([N+](=O)[O-])c3)cc2)C(=O)O)CC[C@@]1(C)C(=O)O [Example 91] | ≤ 0.08 | 146 to 149 °C | 0.8 to 5
9 | COc1ccccc1C(=O)Nc1ccc(C[C@H](NC(=O)[C@H]2CC[C@@](C)(C(=O)O)C2(C)C)C(=O)O)cc1 [Example 95] | 0.08 to 0.5 | 140 to 143 °C | 0.8 to 5
10 | CC1(C)[C@@H](C(=O)N[C@@H](Cc2ccc(NC(=O)c3ccccc3C(F)(F)F)cc2)C(=O)O)CC[C@@]1(C)C(=O)O [Example 108] | ≤ 0.08 | 180 to 183 °C | ≤ 0.8
11 | CC1(C)[C@@H](C(=O)N[C@@H](Cc2ccc(NC(=O)c3ccccc3I)cc2)C(=O)O)CC[C@@]1(C)C(=O)O [Example 110] | ≤ 0.08 | 162 to 165 °C | ≤ 0.8
12 | CC1(C)[C@@H](C(=O)N[C@@H](Cc2ccc(NC(=O)c3ccccc3Br)cc2)C(=O)O)CC[C@@]1(C)C(=O)O [Example 112] | ≤ 0.08 | 156 to 158 °C | ≤ 0.8
13 | CC1(C)[C@@H](C(=O)N[C@@H](Cc2ccc(NC(=O)c3ccccc3Cl)cc2)C(=O)O)CC[C@@]1(C)C(=O)O [Example 120] | 0.08 to 0.5 | 143 to 145 °C | 0.8 to 5
14 | CC1(C)[C@@H](C(=O)N[C@@H](Cc2ccc(NC(=O)c3ccc(Cl)cc3)cc2)C(=O)O)CC[C@@]1(C)C(=O)O [Example 128] | 0.08 to 0.5 | 185 to 188 °C | 0.8 to 5
15 | CC1(C)[C@@H](C(=O)N[C@@H](Cc2ccc(NC(=O)c3cccc4c3Cc3ccccc3-4)cc2)C(=O)O)CC[C@@]1(C)C(=O)O [Example 136] | 0.5 to 1 | 160 to 163 °C | 5 to 10
16 | CONC(=O)[C@]1(C)CC[C@H](C(=O)N[C@@H](Cc2ccc(OCc3c(Cl)cccc3Cl)cc2)C(=O)O)C1(C)C [Example 163] | 0.5 to 1 | 70 to 72 °C | 
17 | CC(=O)N(Cc1c(Cl)cccc1Cl)c1ccc(C[C@H](NC(=O)[C@H]2CC[C@@](C)(C(=O)O)C2(C)C)C(=O)O)cc1 [Example 170] |  | 241 to 244 °C | 5 to 10
18 | CC1(C)[C@@H](C(=O)O)CC[C@]1(C)C(=O)N[C@H](Cc1ccc(NC(=O)c2c(Cl)cccc2Cl)cc1)C(=O)O [Example 246, (1S-trans)-N-[(3-Carboxy-1,2,2-trimethylcyclopentyl)carbonyl]-4-[(2,6-dichlorobenzoyl)amino]-D-phenylalanine] |  | 145 to 150 °C | 
19 | CC1(C)[C@H](C(=O)O)CC[C@@]1(C)C(=O)N[C@@H](Cc1ccc(NC(=O)c2c(Cl)cccc2Cl)cc1)C(=O)O [Example 250, (1R-trans)-N-[(3-Carboxy-1,2,2-trimethylcyclopentyl)carbonyl]-4-[(2,6-dichlorobenzoyl)amino]-L-phenylalanine] |  | 148 to 155 °C | 
20 | CC1(C)[C@@H](C(=O)N[C@@H](Cc2ccc(NC(=O)c3c(Cl)cccc3Cl)c(Br)c2)C(=O)O)CC[C@@]1(C)C(=O)O [Example 252, (1S-cis)-N-[(3-Carboxy-2,2,3-trimethylcyclopentyl)carbonyl]-3-bromo-4-[(2,6-dichlorobenzoyl)amino]-L-phenylalanine] |  | 150 to 152 °C | 

Continued, values first:

Row | IC50 [1] [µM] | melting point | IC50 [2] [µM] | Structure (SMILES)
21 | 0.5 to 1 | 146 to 149 °C |  | CC1(C)[C@@H](C(=O)N[C@@H](Cc2ccc(OCc3ccccc3)cc2)C(=O)O)CC[C@@]1(C)C(=O)O [Example 2, (1S-cis)-N-[(3-Carboxy-2,2,3-trimethylcyclopentyl)carbonyl]-O-(phenylmethyl)-L-tyrosine]
22 | 0.08 to 0.5 | 168 to 171 °C | 0.8 to 5 | CC1(C)[C@@H](C(=O)N[C@@H](Cc2ccc(O)c(NC(=O)c3c(Cl)cccc3Cl)c2)C(=O)O)CC[C@@]1(C)C(=O)O [Example 61]
23 |  | 151 to 154 °C | 0.8 to 5 | CC1(C)[C@@H](C(=O)N[C@@H](Cc2ccc(NC(=O)C3CCCCC3)cc2)C(=O)O)CC[C@@]1(C)C(=O)O [Example 75]
24 |  | 238 to 240 °C | 5 to 10 | CC(=O)Nc1ccc(C[C@H](NC(=O)[C@H]2CC[C@@](C)(C(=O)O)C2(C)C)C(=O)O)cc1 [Example 79]
25 | ≤ 0.08 | 150 to 152 °C | ≤ 0.8 | CC1(C)[C@@H](C(=O)N[C@@H](Cc2ccc(NC(=O)c3c(F)cccc3F)cc2)C(=O)O)CC[C@@]1(C)C(=O)O [Example 83]
26 | 0.08 to 0.5 | 145 to 148 °C | 5 to 10 | CC1(C)[C@@H](C(=O)N[C@@H](Cc2ccc(NC(=O)c3ccccc3)cc2)C(=O)O)CC[C@@]1(C)C(=O)O [Example 85]
27 | 0.08 to 0.5 | 190 to 193 °C | 0.8 to 5 | CC1(C)[C@@H](C(=O)N[C@@H](Cc2ccc(NC(=O)c3cccc(C(=O)c4ccccc4)c3)cc2)C(=O)O)CC[C@@]1(C)C(=O)O [Example 89]
28 | ≤ 0.08 | 170 to 173 °C | ≤ 0.8 | CC1(C)[C@@H](C(=O)N[C@@H](Cc2ccc(NC(=O)c3cc(Br)ccc3Br)cc2)C(=O)O)CC[C@@]1(C)C(=O)O [Example 97]
29 | ≤ 0.08 | 148 to 150 °C | ≤ 0.8 | CC1(C)[C@@H](C(=O)N[C@@H](Cc2ccc(NC(=O)c3cc(C(F)(F)F)ccc3C(F)(F)F)cc2)C(=O)O)CC[C@@]1(C)C(=O)O [Example 104]
30 | ≤ 0.08 | 165 to 168 °C | ≤ 0.8 | Cc1cccc(Cl)c1C(=O)Nc1ccc(C[C@H](NC(=O)[C@H]2CC[C@@](C)(C(=O)O)C2(C)C)C(=O)O)cc1 [Example 106]
31 | 0.08 to 0.5 | 155 to 157 °C | ≤ 0.8 | CC1(C)[C@@H](C(=O)N[C@@H](Cc2ccc(NC(=O)c3ccc(Cl)c(Cl)c3)cc2)C(=O)O)CC[C@@]1(C)C(=O)O [Example 114]
32 | ≤ 0.08 | 162 to 165 °C | ≤ 0.8 | CC1(C)[C@@H](C(=O)N[C@@H](Cc2ccc(NC(=O)c3ccc(-c4ccccc4)cc3)cc2)C(=O)O)CC[C@@]1(C)C(=O)O [Example 116]
33 | 0.5 to 1 | 240 to 242 °C | 0.8 to 5 | CC1(C)[C@@H](C(=O)N[C@@H](Cc2ccc(NC(=O)Cc3ccccc3)cc2)C(=O)O)CC[C@@]1(C)C(=O)O [Example 121]
34 |  | 212 to 214 °C | 0.8 to 5 | CCCCCCCc1ccc(C(=O)Nc2ccc(C[C@H](NC(=O)[C@H]3CC[C@@](C)(C(=O)O)C3(C)C)C(=O)O)cc2)cc1 [Example 122]
35 | 0.08 to 0.5 | 141 to 143 °C | 0.8 to 5 | CC1(C)[C@@H](C(=O)N[C@@H](Cc2ccc(NC(=O)c3ccc4ccccc4c3)cc2)C(=O)O)CC[C@@]1(C)C(=O)O [Example 124]
36 | 0.08 to 0.5 | 158 to 161 °C | 0.8 to 5 | CC1(C)[C@@H](C(=O)N[C@@H](Cc2ccc(NC(=O)c3ccco3)cc2)C(=O)O)CC[C@@]1(C)C(=O)O [Example 130]
37 | 0.08 to 0.5 | 117 to 120 °C | 0.8 to 5 | CC1(C)[C@@H](C(=O)N[C@@H](Cc2ccc(NC(=O)c3ccccc3F)cc2)C(=O)O)CC[C@@]1(C)C(=O)O [Example 132]
38 |  | 146 to 148 °C | 0.8 to 5 | CC(C)CC(=O)Nc1ccc(C[C@H](NC(=O)[C@H]2CC[C@@](C)(C(=O)O)C2(C)C)C(=O)O)cc1 [Example 134]
39 | 0.5 to 1 | 125 to 128 °C | 0.8 to 5 | CC(C)COC(=O)Nc1ccc(C[C@H](NC(=O)[C@H]2CC[C@@](C)(C(=O)O)C2(C)C)C(=O)O)cc1 [Example 141]
40 | 0.5 to 1 | 148 to 150 °C |  | CC1(C)[C@@H](C(=O)N[C@@H](Cc2ccc(NC(=O)c3ccccc3O)cc2)C(=O)O)CC[C@@]1(C)C(=O)O [Example 143]

From patent US6482849B1, “Inhibitors of α4β1 mediated cell adhesion” (Tanabe Seiyaku Co., Ltd., priority 1997, dated 2002)
